US20250281489A1, “BIOMARKERS FOR PREDICTING SENSITIVITY TO CANCER TREATMENTS” (Genentech, Inc., priority 2011, published 2025)
Blank lines part the entries; values can stand above or below the compound they belong to.

Columns and labels:
[1] = test system: Cyclin D1; test: reverse phase protein arrays of tumor biopsies from patients: Cyclin D1; assay type: in vivo, human; settings: all 3 patients treated at 400 mg daily
Procedure: (§1) Core-needle tumor biopsies from patients treated with GDCC0068 were flash-frozen in OCT and sectioned into 8 um slices. Tissue was lysed in RPPA lysis buffer containing TPER, 300 mM NaCl and phosphatase inhibitors. Phosphoprotein signatures of the lysates were analysed using Reverse-Phase protein arrays: samples were printed on nitrocellulose slides and stained with Sypro to determine total protein concentrations. Each slide was stained with a different antibody at 4° C. overnight. The data was then normalized to total protein levels and spatial effects were removed using Quadrant median normalization. Decreases of 60%-70% in pPRAS40 and ˜50% decrease in Cyclin D1 (compared with baseline) occurred in all 3 patients treated at 400 mg daily. For methods and overview of RPPA see: Reverse phase protein microarrays advance to use in clinical trials, Molecular Oncology. 2010 December; 4(6):461-81, Mueller C et al. In certain embodiments, the cancer to be treated herein comprises one or more of AKT, PI3k, PTEN and HER2 mutations or AKT, PI3k, PTEN or HER2 abberant signaling. In one example, the cancer is gastric cancer comprising high pAKT activity and PTEN low or null status.

[2] = test system: pGSK-3β; test: surrogate PD biomarker assay: phospho-GSK-3β in platelet rich plasma of patients; assay type: in vivo, human; settings: doses≥200 mg, ratio to pre-dose
Procedure: Phospho-GSK-3b in Platelet rich plasma (PRP) was used as a surrogate PD biomarker to measure Akt pathway inhibition in patients after treatment with GDC-0068 at different time points over 22 days. Peripheral blood was collected in Vacutainer containing 0.38% of citrate as anti-coagulant. Blood was spun at 200 g for 15 min at room temperature. The PRP layer was carefully taken from the tube and then lysed in a buffer containing detergents, protease and phosphatase inhibitors. Phosphorylated and total GSK-3β levels in PRP lysates were measured using a phospho-GSK3β/total-GSK30 multiplexed MSD assay. pGSk-3β levels were normalized to total GSk-3β levels and post-dose inhibition of pGSk-3β was expressed as a ratio of the pre-dose levels for each patient.

[3] = test system: cell lines with AKT pathway activation (PTEN loss, PI3K mutations); test: combination with MEK inhibitor in cell lines, BLISS analysis; assay type: cell-based; settings: in combination with a MEK inhibitor (GDC-0973)
Description: BLISS analysis indicates broad synergy for GDC-0068 in combination with a MEK inhibitor (GDC-0973).

[4] = combo screens with 5FU/Cisplatin; assay type: cell-based; settings: combination with Cisplatin+5FU; associated with PTEN, pAKT, PI3K mutation
Description: FIG. 15 depicts results that the combination effects of GDC-0068 with Cisplatin+5FU are associated with AKT pathway activation.

[5] = test system: pPRAS40; test: reverse phase protein arrays of tumor biopsies from patients: pPRAS40; assay type: in vivo, human; settings: all 3 patients treated at 400 mg daily
Procedure: as §1

[6] = test system: xenograft models; test: single agent activity in xenograft models; assay type: in vivo; settings: models with AKT pathway activation and without MEK pathway activation
[7] = test system: mutant AKT1 enzymes (E17K, L52R and D323H); test: biochemical activity assay, recombinant full-length mutant AKT1 enzymes; settings: in words
Description: (§2) Several ATP-competitive and allosteric small molecule inhibitors of AKT are in development and/or clinical trials (Mattmann et al., (2011). Expert Opin Ther Pat.; Pal et al., (2010). Expert Opin Investig Drugs 19, 1355-1366). Previous studies have shown that allosteric inhibitors of AKT require the presence of an intact PH-KD interface for their activity. Given that some AKT1 somatic mutants have impaired PH-KD contacts, it was predicted that allosteric inhibitors are likely to be less efficacious in inhibiting the activity of these mutants.

[8] = molecular target: T1, WT AKT1 enzyme (Homo sapiens, UniProt P31749); test: biochemical activity assay, recombinant full-length WT AKT1 enzyme; settings: in words
T1 construct: were tested on recombinant full-length WT and mutant AKT1 enzymes
Description: Several ATP-competitive and allosteric small molecule inhibitors of AKT are in development and/or clinical trials (Mattmann et al., (2011). Expert Opin Ther Pat.; Pal et al., (2010). Expert Opin Investig Drugs 19, 1355-1366).

[9] = molecular target: T2, WT PH domain reconstituted with mutant D323H kinase domain (Homo sapiens, UniProt P31749, D323H); test: in vitro biochemical reconstitution assay, WT PH domain with D323H kinase domain; settings: in words
T2 construct: using purified recombinant PH and kinase domains
Procedure: (§3) To confirm that the reduced sensitivity of the mutants to allosteric inhibitors was due to the impaired PH-KD interactions, an in vitro biochemical reconstitution assay was performed using purified recombinant PH and kinase domains.

[10] = test system: AKT1 kinase domain reconstituted with WT PH domain; test: in vitro biochemical reconstitution assay, WT PH domain added to kinase domain
Procedure: as §3

[11] = molecular target: T3, AKT1 kinase domain alone (Homo sapiens, UniProt P31749); test: in vitro biochemical assay, AKT1 kinase domain alone; settings: purified recombinant kinase domain, no PH domain
T3 construct: using purified recombinant PH and kinase domains
Procedure: as §3

[12] = test system: NIH3T3 cells expressing WT or AKT1 mutants; test: cell based proliferation assay, NIH3T3 cells expressing WT or AKT1 mutants
Description: as §2

T1 sequence (P31749 whole entry): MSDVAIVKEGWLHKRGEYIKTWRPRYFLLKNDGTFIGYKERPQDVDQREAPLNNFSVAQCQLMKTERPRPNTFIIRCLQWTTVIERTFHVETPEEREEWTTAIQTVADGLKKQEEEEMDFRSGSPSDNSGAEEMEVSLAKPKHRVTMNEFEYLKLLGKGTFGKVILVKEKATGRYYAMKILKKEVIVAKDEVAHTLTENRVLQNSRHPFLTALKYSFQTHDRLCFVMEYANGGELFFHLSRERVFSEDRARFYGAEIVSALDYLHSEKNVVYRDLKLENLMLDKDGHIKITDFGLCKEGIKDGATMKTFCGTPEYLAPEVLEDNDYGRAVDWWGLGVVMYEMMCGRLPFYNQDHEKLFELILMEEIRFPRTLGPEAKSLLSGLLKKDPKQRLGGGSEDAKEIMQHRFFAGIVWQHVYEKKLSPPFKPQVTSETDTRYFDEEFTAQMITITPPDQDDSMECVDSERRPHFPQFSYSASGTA
T2 sequence (P31749 150-408 D323H limits assumed): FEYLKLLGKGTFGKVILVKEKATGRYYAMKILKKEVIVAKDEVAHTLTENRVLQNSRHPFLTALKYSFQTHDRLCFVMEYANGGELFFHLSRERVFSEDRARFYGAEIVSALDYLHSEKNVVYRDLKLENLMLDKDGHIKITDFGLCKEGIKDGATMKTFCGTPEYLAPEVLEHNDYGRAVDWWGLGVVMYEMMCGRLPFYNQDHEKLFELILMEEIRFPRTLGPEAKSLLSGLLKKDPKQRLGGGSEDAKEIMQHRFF
T3 sequence (P31749 150-408 limits assumed): as the sequence (P31749 150-408 D323H limits assumed) above, with H174D counted along it

Structure (SMILES): CC(C)NC[C@@H](C(=O)N1CCN(c2ncnc3c2[C@H](C)C[C@H]3O)CC1)c1ccc(Cl)cc1 [GDC-0068]
decrease in Cyclin D1 compared with baseline [1]: ~50% | decrease in pGSK3β level [2]: ≥ 75% | combination effect, BLISS analysis [3]: broad synergy | combination effect [4]: additive effects | decrease in pPRAS40 compared with baseline [5]: 60%-70% | single agent efficacy in xenograft models [6]: Robust efficacy

effectiveness against recombinant full-length mutant enzymes compared to WT AKT1 [7]: less effective
Structure (SMILES): NC(=O)[C@@H]1CCCCN1CCCN(C(=O)c1cccs1)c1nc(-c2ccncc2)cs1 [GNE-929]

blocking the activity of the WT AKT1 enzyme [8]: effective | blocking the activity of the mutant enzymes ([7]; E17K, L52R and D323H): effective
Structure (SMILES): CCn1c(-c2nonc2N)nc2c(C#CC(C)(C)O)ncc(OC[C@H]3CCCNC3)c21 [GSK690693]

Structure (SMILES): O=c1[nH]c2ccccc2n1C1CCN(Cc2ccc(-c3nc4cc5[nH]cnc5cc4nc3-c3ccccc3)cc2)CC1 [Inhibitor VIII]
activity when WT PH domain was reconstituted with mutant D323H kinase domain [9]: no activity | increase in IC50 for the reconstituted enzyme compared to the full length WT enzyme [10]: three fold | IC50 ([10]; reconstituted enzyme, WT PH domain + kinase domain): 239 nM | blocking activity of AKT1 kinase domain alone [11]: unable to block its activity | less effective at blocking proliferation of cells expressing mutant AKT1 compared to WT AKT [12]: at least 50%
